Data reported in ChEMBL document CHEMBL1201862, “PubChem BioAssay data set” (2004).
Calls of active or inactive are those of the source. No stated cut-off is given here; in the data, actives have a measured IC50 and inactives only a lower limit.

Target: Envelope glycoprotein gp160 (Human immunodeficiency virus 1, UniProt Q6QLK5)
Assay: inhibitors of HIV fusion peptide binding, primary screen, biochemical, uHTS, fluorescence dequenching (AID 1986)

Chain of Envelope glycoprotein gp160 (Q6QLK5 whole entry, the tested form may be a part): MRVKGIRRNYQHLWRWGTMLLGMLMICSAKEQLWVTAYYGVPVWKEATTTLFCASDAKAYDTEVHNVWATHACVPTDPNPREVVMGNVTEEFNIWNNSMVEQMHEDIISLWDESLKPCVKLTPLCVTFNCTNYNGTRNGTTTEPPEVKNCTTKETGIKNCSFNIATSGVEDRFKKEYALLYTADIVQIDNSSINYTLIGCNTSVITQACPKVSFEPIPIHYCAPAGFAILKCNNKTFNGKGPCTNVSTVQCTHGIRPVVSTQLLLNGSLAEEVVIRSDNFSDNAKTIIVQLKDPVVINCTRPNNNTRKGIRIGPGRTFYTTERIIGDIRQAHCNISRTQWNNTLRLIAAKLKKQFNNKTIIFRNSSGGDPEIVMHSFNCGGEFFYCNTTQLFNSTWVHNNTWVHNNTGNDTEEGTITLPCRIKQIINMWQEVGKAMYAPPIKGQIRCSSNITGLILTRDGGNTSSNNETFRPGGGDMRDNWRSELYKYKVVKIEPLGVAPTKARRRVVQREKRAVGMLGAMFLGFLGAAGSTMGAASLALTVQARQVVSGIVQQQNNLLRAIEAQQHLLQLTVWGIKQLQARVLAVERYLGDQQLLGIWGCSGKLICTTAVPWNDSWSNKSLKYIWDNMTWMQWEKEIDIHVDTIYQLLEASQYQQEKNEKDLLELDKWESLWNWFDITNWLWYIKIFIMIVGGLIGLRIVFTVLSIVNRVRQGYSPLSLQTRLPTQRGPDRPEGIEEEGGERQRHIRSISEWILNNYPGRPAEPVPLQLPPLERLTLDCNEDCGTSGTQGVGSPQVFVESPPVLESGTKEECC

Row | Structure (SMILES) | IC50
1 | O=C(O)c1ccccc1-c1ccccc1C(=O)Nc1ccc(-c2nc3cc(Cl)ccc3o2)cc1 | 24.4 µM (active)
2 | COc1cc(/C=C2\C(=N)N3N=C(S(C)(=O)=O)SC3=NC2=O)ccc1OC(=O)c1cccs1 | 12.1 µM (active)
